{
  "source": "the supplement of paper PMC10307832",
  "test_in_all_cases": "relative viability (nuclei count vs DMSO), 5 days (fraction); higher = more cells survive",
  "key": {"GW-2580 + Phenformin": {"compound": "COC1=CC=C(C=C1)COC2=C(C=C(C=C2)CC3=CN=C(N=C3N)N)OC [GW-2580] + N=C(N)NC(=N)NCCc1ccccc1 [Phenformin] (partner 250 µM)", "in_short": "(§1)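 A single step with final 0.05% Triton X-100, 1% formaldehyde and 1 ug/ml Hoechst fixed the cells and stained nuclei 5 days after treatment. Lung cancer cell lines in 1536-well plates had been treated by pin tool the day after seeding with one drug alone or a fixed anchor-drug dose plus five library-drug doses (not always all listed) in √10 steps, and nuclei were counted on 4× images. Relative viability is the ratio of nuclei in treated wells to nuclei in vehicle wells, taken as the median of duplicate plates.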"}, "Fedratinib + Dasatinib": {"compound": "Cc1cnc(Nc2ccc(OCCN3CCCC3)cc2)nc1Nc1cccc(S(=O)(=O)NC(C)(C)C)c1 [Fedratinib] + Cc1nc(Nc2ncc(C(=O)Nc3c(C)cccc3Cl)s2)cc(N2CCN(CCO)CC2)n1 [Dasatinib] (partner 0.075 µM)", "in_short": "as §1"}, "GW-2580 + Alpelisib": {"compound": "COC1=CC=C(C=C1)COC2=C(C=C(C=C2)CC3=CN=C(N=C3N)N)OC [GW-2580] + Cc1nc(NC(=O)N2CCC[C@H]2C(N)=O)sc1-c1ccnc(C(C)(C)C(F)(F)F)c1 [Alpelisib] (partner 2 µM)", "in_short": "as §1"}, "GW-2580 + Olaparib": {"compound": "COC1=CC=C(C=C1)COC2=C(C=C(C=C2)CC3=CN=C(N=C3N)N)OC [GW-2580] + O=C(c1cc(Cc2n[nH]c(=O)c3ccccc23)ccc1F)N1CCN(C(=O)C2CC2)CC1 [Olaparib] (partner 8 µM)", "in_short": "as §1"}, "GW-2580 + Vorinostat": {"compound": "COC1=CC=C(C=C1)COC2=C(C=C(C=C2)CC3=CN=C(N=C3N)N)OC [GW-2580] + O=C(CCCCCCC(=O)Nc1ccccc1)NO [Vorinostat] (partner 1 µM)", "in_short": "as §1"}},
  "data": [
    {"cell line": "UMC-11", "values": [
      {"measurement": "relative viability", "setting": "GW-2580 + Phenformin; first compound 0.08 µM", "result": 0.349},
      {"measurement": "relative viability", "setting": "GW-2580 + Phenformin; first compound 0.8 µM", "result": 0.311},
      {"measurement": "relative viability", "setting": "GW-2580 + Phenformin; first compound 2.53 µM", "result": 0.388},
      {"measurement": "relative viability", "setting": "GW-2580 + Phenformin; first compound 8 µM", "result": 0.343},
      {"measurement": "relative viability", "setting": "Fedratinib + Dasatinib; first compound 0.1 µM", "result": 0.53},
      {"measurement": "relative viability", "setting": "Fedratinib + Dasatinib; first compound 0.3162 µM", "result": 0.412},
      {"measurement": "relative viability", "setting": "Fedratinib + Dasatinib; first compound 1 µM", "result": 0.453},
      {"measurement": "relative viability", "setting": "GW-2580 + Alpelisib; first compound 0.08 µM", "result": 0.959},
      {"measurement": "relative viability", "setting": "GW-2580 + Alpelisib; first compound 0.8 µM", "result": 1.07},
      {"measurement": "relative viability", "setting": "GW-2580 + Alpelisib; first compound 2.53 µM", "result": 1.11},
      {"measurement": "relative viability", "setting": "GW-2580 + Alpelisib; first compound 8 µM", "result": 1.21},
      {"measurement": "relative viability", "setting": "GW-2580 + Olaparib; first compound 0.08 µM", "result": 0.358},
      {"measurement": "relative viability", "setting": "GW-2580 + Olaparib; first compound 0.8 µM", "result": 0.375},
      {"measurement": "relative viability", "setting": "GW-2580 + Olaparib; first compound 2.53 µM", "result": 0.464},
      {"measurement": "relative viability", "setting": "GW-2580 + Olaparib; first compound 8 µM", "result": 0.436},
      {"measurement": "relative viability", "setting": "GW-2580 + Vorinostat; first compound 0.08 µM", "result": 0.384},
      {"measurement": "relative viability", "setting": "GW-2580 + Vorinostat; first compound 0.8 µM", "result": 0.391},
      {"measurement": "relative viability", "setting": "GW-2580 + Vorinostat; first compound 2.53 µM", "result": 0.513},
      {"measurement": "relative viability", "setting": "GW-2580 + Vorinostat; first compound 8 µM", "result": 0.413}
    ]}
  ]
}
